Test results taken from ChEMBL document CHEMBL4368855, “Novel tricyclic glycal-based TRIB1 inducers that reprogram LDL metabolism in hepatic cells” (Medchemcomm, 2018).
≈ marks a conversion by molar mass, not a printed value.

Columns and labels:
HepG2 [1] = assay: Up regulation of LDLR gene expression in human HepG2 cells measured after 6 hrs by qRT-PCR analysis relative to control; assay type: functional
HepG2 [2] = assay: Up regulation of TRIB1 gene expression in human HepG2 cells measured after 6 hrs by qRT-PCR analysis relative to control; assay type: functional
HepG2 [3] = assay: Up regulation of TRIB1 gene expression in human HepG2 cells measured after 6 hrs by qRT-PCR analysis; assay type: functional, cell-based; conditions: HepG2, 6 h
HepG2 [4] = assay: Up regulation of LDLR gene expression in human HepG2 cells measured after 6 hrs by qRT-PCR analysis; assay type: functional, cell-based; conditions: HepG2, 6 h
HepG2 [5] = assay: Down regulation of PCSK9 gene expression in human HepG2 cells measured after 24 hrs by qRT-PCR analysis; assay type: functional, cell-based; conditions: HepG2, 24 h
[6] = Solubility of the compound in 1% DMSO/phosphate buffered saline at pH 7.4 incubated for 18 hrs under shaking condition by UPLC/MS analysis; assay type: physicochemical
[7] = Stability in mouse liver microsomes assessed as parent compound remaining at 1 uM incubated for 60 mins under shaking condition by UPLC/MS analysis; assay type: ADME, Microsome; conditions: read-out: Stability
[8] = Tmax in C57BL/6 mouse plasma at 10 mg/kg, ip administered as single dose by mass spectrometry; assay type: ADME, organism-based
[9] = Cmax in C57BL/6 mouse plasma at 10 mg/kg, ip administered as single dose by mass spectrometry; assay type: ADME, organism-based; parameters: dose 10 mg/kg, route intraperitoneal
[10] = AUC (infinity) in C57BL/6 mouse plasma at 10 mg/kg, ip administered as single dose by mass spectrometry; assay type: ADME, organism-based; parameters: dose 10 mg/kg, route intraperitoneal, time infinity; conditions: in vivo
[11] = Half life in C57BL/6 mouse plasma at 10 mg/kg, ip administered as single dose by mass spectrometry; assay type: ADME, organism-based
[12] = Clearance in C57BL/6 mouse plasma at 10 mg/kg, ip administered as single dose by mass spectrometry; assay type: ADME, organism-based
[13] = Apparent volume of distribution in C57BL/6 mouse plasma at 10 mg/kg, ip administered as single dose by mass spectrometry; assay type: ADME, organism-based; conditions: in vivo
[14] = Tmax in C57BL/6 mouse liver at 10 mg/kg, ip administered as single dose by mass spectrometry; assay type: ADME, organism-based
[15] = Cmax in C57BL/6 mouse liver at 10 mg/kg, ip administered as single dose by mass spectrometry; assay type: ADME, organism-based; parameters: dose 10 mg/kg, route intraperitoneal
[16] = AUC (infinity) in C57BL/6 mouse liver at 10 mg/kg, ip administered as single dose by mass spectrometry; assay type: ADME, organism-based; parameters: dose 10 mg/kg, route intraperitoneal, time infinity; conditions: in vivo
[17] = Half life in C57BL/6 mouse liver at 10 mg/kg, ip administered as single dose by mass spectrometry; assay type: ADME, organism-based
[18] = Apparent volume of distribution in C57BL/6 mouse liver at 10 mg/kg, ip administered as single dose by mass spectrometry; assay type: ADME, organism-based; conditions: in vivo
[19] = Unbound fraction in C57BL/6 mouse liver at 10 mg/kg, ip administered as single dose by mass spectrometry; assay type: ADME, organism-based
[20] = Drug uptake in C57BL/6 mouse at 15 to 45 mg/kg, ip administered as single dose measured at 8 to 12 hrs post dose by mass spectrometry; assay type: ADME, organism-based; conditions: in vivo
[21] = Toxicity in C57BL/6 mouse at 15 to 45 mg/kg, ip administered as single dose measured over 24 hrs; assay type: organism-based; conditions: in vivo

- EC50 (HepG2 [3]): 80 nM
- EC50 (HepG2 [4]): 170 nM
- EC50 (HepG2 [5]): 60 nM
- solubility kinetic at 18 h [6]: 7 µM (≈ 3.95 µg/mL)
- remaining at 1 h, 1 µM [7]: 28%
- Tmax [8]: 30 min
- Cmax [9]: 2310 ng/mL
- AUC [10]: 3616 µg/L/h
- half-life [11]: 67.2 min
- CL/F [12]: 46.2 mL/min/kg
- Vz [13]: 4.48 L/kg
- Tmax [14]: 4.8 min
- Cmax [15]: 13100 ng/mL
- AUC [16]: 16803 µg/L/h
- half-life [17]: 69.6 min
- Vz [18]: 0.99 L/kg
- fraction unbound [19]: 0.01
- Drug uptake [20]: Active
SMILES: CC(C)COC(=O)NC[C@@H]1CC[C@H]2[C@H](COc3ccc(NC(=O)c4ccc(C(F)(F)F)cc4)cc3C(=O)N2C)O1
- max activation (HepG2 [1]): 3.7
- max activation (HepG2 [2]): 5.8
- Activity [21]: Non-Toxic
